This is an account of results in ChEMBL document CHEMBL5052840, “Pharmaceutical compounds and therapeutic methods” (2020).

The nature of data set [1]: Efflux ratio of apparent permeability across basolateral to apical membrane over apical to basolateral membrane in human Caco-2 cells measured by LC-MS analysis. The data set is classed as ADME, cell-based. In general terms: Caco-2 cells form a polarised layer with tight junctions and transporters.
Data set [2] in a line: Plasma concentration in male C57BL/6 mouse at 10 mg/kg, po administered as single dose measured at 6 hrs measured by LC/MS-MS analysis. The class given is ADME, organism-based.
Data set [3] can be described thus: Brain concentration in male C57BL/6 mouse at 10 mg/kg, ip administered as single dose measured at 1 hr measured by LC/MS-MS analysis. The data set is classed as ADME, organism-based. The note with it: read-out: Drug uptake.
Data set [4] is described as follows: Brain concentration in male C57BL/6 mouse at 10 mg/kg, ip administered as single dose measured at 3 hrs measured by LC/MS-MS analysis. The note with it: read-out: Drug uptake. The class given is ADME, organism-based.
Data set [5] is described as follows: Ratio of drug level in male C57BL/6 mouse brain to plasma at 10 mg/kg, ip administered as single dose measured at 0.35 hrs measured by LC/MS-MS analysis. The note with it: read-out: BPR. The data set is classed as ADME, organism-based.
The nature of data set [6]: Ratio of drug level in male C57BL/6 mouse brain to plasma at 10 mg/kg, po administered as single dose measured at 0.08 hrs measured by LC/MS-MS analysis. The class given is ADME, organism-based. The note with it: read-out: BPR.
The nature of data set [7]: Ratio of drug level in male C57BL/6 mouse brain to plasma at 10 mg/kg, po administered as single dose measured at 0.35 hrs measured by LC/MS-MS analysis. The data set is classed as ADME, organism-based. The note with it: read-out: BPR.
Data set [8] is described as follows: Ratio of drug level in male C57BL/6 mouse brain to plasma at 10 mg/kg, po administered as single dose measured at 1 hr measured by LC/MS-MS analysis. The note with it: read-out: BPR. The class given is ADME, organism-based.
Data set [9] in a line: Ratio of drug level in male C57BL/6 mouse brain to plasma at 10 mg/kg, po administered as single dose measured at 3 hrs measured by LC/MS-MS analysis. The note with it: read-out: BPR. The class given is ADME, organism-based.
The nature of data set [10]: Plasma concentration in male C57BL/6 mouse at 10 mg/kg, iv administered as single dose measured at 0.35 hrs measured by LC/MS-MS analysis. The data set is classed as ADME, organism-based.
Data set [11] is described as follows: Plasma concentration in male C57BL/6 mouse at 10 mg/kg, iv administered as single dose measured at 3 hrs measured by LC/MS-MS analysis. The data set is classed as ADME, organism-based.
Data set [12] can be described thus: Brain concentration in male C57BL/6 mouse at 10 mg/kg, iv administered as single dose measured at 0.35 hrs measured by LC/MS-MS analysis. The class given is ADME, organism-based. The note with it: read-out: Drug uptake.

`Cc1nc2ccccn2c1-c1csc(Nc2ccc3c(c2)OC(F)(F)O3)n1.Cl`: in [1], the Ratio was determined as 0.9. In data set [2], this molecule gave a concentration at 6 h of 2.5 ng/mL. Further, the concentration at 1 h in data set [3] was found to be 159 ng/g. Besides, the concentration at 3 h was 558 ng/g in data set [4] and 5.64 ng/mL in [11]. Also, the Kp at 0.35 h in data set [5] turned out to be 0.96; in data set [7] it was 1.6. In data set [6], the Kp at 0.08 h amounted to 0.78. Moreover, the Kp at 1 h in data set [8] came to 2.01. Moreover, in [9], the Kp at 3 h turned out to be 4.34. For the same molecule, the concentration at 0.35 h worked out at 535 ng/mL in data set [10] and 514 ng/g in data set [12].
